Where two headings read alike, the source gives them in different places.
Columns and labels:
ALDH1a3 [1] = biological target: T1, ALDH1a3 (Homo sapiens, UniProt P47895); assay: ALDEFLUOR assay in SUM159-M1a-Aldh1a3 cells (flow cytometry); format: cell-based; conditions: for Percent of Cells Positive for ALDEFLUOR at 100 nM / inhibition at 0.1 µM: SUM159-M1a-Aldh1a3 cells, compound at 100 nM; for inhibition at 0.1 µM: read-out: Inhibitory Activity at 100 nM (%); for inhibition of ALDH1a3 activity (FIG. 1A): compounds at 100 nM; for lowest concentration at which inhibitory activity detected ([inh-min], FIG. 1B): threshold at lower bound of two standard deviations of control samples
T1 construct: lentiviral vectors containing either the vector backbone or full-length human Aldh1a3; expressed in transfected cells; host or cells: SUM159-M1a (A1) and SUM159 (A7) breast cancer cells, lentiviral pLex vector, puromycin selection
T1 sequence (P47895 1-512): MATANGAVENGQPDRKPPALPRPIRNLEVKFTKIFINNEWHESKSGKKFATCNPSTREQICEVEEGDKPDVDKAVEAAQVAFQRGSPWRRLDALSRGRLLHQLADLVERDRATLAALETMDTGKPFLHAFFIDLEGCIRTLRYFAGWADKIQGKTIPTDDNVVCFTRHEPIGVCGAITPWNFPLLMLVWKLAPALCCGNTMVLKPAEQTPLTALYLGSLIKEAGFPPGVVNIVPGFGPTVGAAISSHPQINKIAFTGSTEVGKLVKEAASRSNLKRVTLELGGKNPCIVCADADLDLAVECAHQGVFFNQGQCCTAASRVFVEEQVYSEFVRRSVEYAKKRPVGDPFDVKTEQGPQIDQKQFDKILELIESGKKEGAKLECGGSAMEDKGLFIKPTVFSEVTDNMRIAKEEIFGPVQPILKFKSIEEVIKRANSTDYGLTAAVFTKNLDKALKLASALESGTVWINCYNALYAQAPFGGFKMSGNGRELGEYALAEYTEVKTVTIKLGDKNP
Description: (§1) Cells were counted, centrifuged and resuspended at 1,000,000 cells/mL in ALDEFLUOR™ buffer (Stemcell Technologies). ALDEFLUOR™ substrate (Stemcell Technologies, 1:200) and test compound or 1 mM DEAB were added to cell suspension and incubated at 37° C. for 45 minutes with vortexing every 15 minutes. Cells were centrifuged and resuspended in ALDEFLUOR™ buffer with DAPI at 5 μg/mL. Samples were analyzed with the BD LSR2 flow cytometry platform. Gating was performed using DEAB as a negative control.
Gating for background fluorescence was performed using 1 millimolar DEAB as a negative control.
The [inh-min] threshold was set at the lower bound of two standard deviations of control samples, while the IC50 threshold was set at 50% of the average of control samples.
High activity was gated at the 99th percentile of cells at a MBE1.5 concentration of 10 nanomolar. The [inh-min] threshold was set at the lower bound of two standard deviations of control samples.
An ALDEFLUOR™ assay was also used to assess the relative activity of several compounds described herein against SUM159-M1a-Aldh1a3 cells. The activity of several compounds in the assay at a concentration of 100 nM is reported in Table 1, along with the chemical structure and compound name associated with each compound.

Aldh1a1 = biological target: T2, Aldh1a1 (Homo sapiens, UniProt P00352); assay: ALDEFLUOR assay in MCF7 cells transduced with human Aldh1a1; format: cell-based; conditions: concentrations below 10 μM
T2 construct: expressed in transfected cells; host or cells: MCF7, lentiviral pLex vector
T2 sequence (P00352 1-501): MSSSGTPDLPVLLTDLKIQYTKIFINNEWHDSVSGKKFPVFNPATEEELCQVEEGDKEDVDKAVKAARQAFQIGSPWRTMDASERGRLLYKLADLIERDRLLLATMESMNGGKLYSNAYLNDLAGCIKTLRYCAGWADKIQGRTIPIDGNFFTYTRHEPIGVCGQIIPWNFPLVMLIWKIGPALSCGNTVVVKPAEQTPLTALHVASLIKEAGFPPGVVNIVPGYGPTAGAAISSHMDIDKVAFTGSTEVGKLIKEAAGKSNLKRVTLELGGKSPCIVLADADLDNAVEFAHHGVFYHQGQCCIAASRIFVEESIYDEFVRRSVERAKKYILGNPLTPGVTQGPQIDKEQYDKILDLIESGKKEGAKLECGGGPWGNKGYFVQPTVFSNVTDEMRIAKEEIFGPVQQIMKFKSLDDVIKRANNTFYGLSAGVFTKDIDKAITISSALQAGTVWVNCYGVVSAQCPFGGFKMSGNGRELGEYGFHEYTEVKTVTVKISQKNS
Description: The coding sequences of Aldh1a1, Aldh1a2, Aldh1a3 and Aldh3a1 were cloned from cDNA made from pooled human reference RNA samples. Cloned sequences flanked by Age1 and Xho1 restriction sites were inserted into the pLex lentiviral plasmid. Clones were sequenced and compared against NCBI expressed sequence tags (ESTs) for accuracy. […]. Viruses were collected and filtered at 0.45 μm, then cells were transduced using polybrene (8 μg/mL) for 12 hours, followed by culture with 1 μg/mL puromycin for the duration of experiments. All viral transduction and selection was performed on a cell population-wide basis.
as §1

ALDH1a3 [2] = biological target: T1, ALDH1a3; assay: ALDEFLUOR assay in MCF7 cells transduced with human Aldh1a3; format: cell-based
Description: The coding sequences of Aldh1a1, Aldh1a2, Aldh1a3 and Aldh3a1 were cloned from cDNA made from pooled human reference RNA samples. Cloned sequences flanked by Age1 and Xho1 restriction sites were inserted into the pLex lentiviral plasmid. Clones were sequenced and compared against NCBI expressed sequence tags (ESTs) for accuracy. Viral production of each enzyme was performed by transfection into the 293T packaging cell line using PEI along with PsPax2 and VSVG packaging vectors. Viruses were collected and filtered at 0.45 μm, then cells were transduced using polybrene (8 μg/mL) for 12 hours, followed by culture with 1 μg/mL puromycin for the duration of experiments. All viral transduction and selection was performed on a cell population-wide basis.
as §1
ALDH isoforms 1a1, 1a2, 1a3 and 3a1 were expressed in MCF7 or SUM159 cells, which were subsequently used in an ALDEFLUOR™ assay.

bone marrow cells = assay: Ex vivo analysis of ALDH activity in murine lymphocytes (ALDEFLUOR); format: cell-based, mouse
Description: Bone marrow cells were collected from 12-week old […] mice via tibia and femur flush with PBS and were passed through a 100-μm cell sieve. Thymocytes and spleenocytes were isolated from corresponding tissues and were isolated by physical disruption against a 100 μm cell sieve. Cells were washed via centrifugation/resuspension and then suspended at 10^7 cells/mL. The ALDEFLUOR™ assay with or without MBE1 was then conducted on these cells as described except with the addition of either […] (Biolegend #100308), anti-CD11c (BD Pharmigen #561119), anti-CD45 (eBioscience 30-F11), or anti-CD317 (Biolegend 129c1) during the incubation period at 1:200.
Similar results (not shown) were obtained in other populations tested, including CD45-positive and CD3e-positive (CD45+CD3e+) and CD11c-positive and CD317-positive (CD11+CD317+).

Row | Compound | IC50 (ALDH1a3 [1]) [nM] | Percent of Cells Positive for ALDEFLUOR at 100 nM (ALDH1a3 [1]) [%] | inhibition at 0.1 µM (ALDH1a3 [1]) [%] | inhibition of ALDH1a3 activity (FIG. 1A) (ALDH1a3 [1]) | lowest concentration at which inhibitory activity detected ([inh-min], FIG. 1B) (ALDH1a3 [1]) [nM] | inhibition of Aldh1a1 activity (FIG. 2A) (Aldh1a1) | inhibition of Aldh1a3 activity (FIG. 2A) (ALDH1a3 [2]; MCF7 cells) | IC50 (ALDH1a3 [1]; dose titration, IC50 threshold at 50% of average of control samples, read-out: IC50 (percentage of ALDEFLUOR-positive cells, FIG. 1B)) [nM] | inhibition of highly ALDH1a3-active cells (high ALDH percentage, FIG. 1C) (ALDH1a3 [1]; dose titration, high activity gated at 99th percentile at 10 nanomolar MBE1.5) | isoform specificity, percentage of ALDEFLUOR-positive MCF7 cells (FIG. 13B) (ALDH1a3 [2]; MCF7 cells expressing ALDH 1a1, 1a2, 1a3 or 3a1) | effect on ALDEFLUOR activity of CD11c-positive bone marrow cells (FIG. 4B) (bone marrow cells; murine bone marrow) | effect on ALDEFLUOR activity of CD45-positive bone marrow cells (FIG. 4A) (bone marrow cells; murine bone marrow) | effect on ALDEFLUOR activity of all populations tested (incl. CD45+CD3e+, CD11+CD317+) (bone marrow cells; murine cells)
1 | CCc1cnccc1C(=O)Nc1cc2c(cc1F)NC(=O)CC2 [MBE1, 3-ethyl-N-(7-fluoro-2-oxo-1,2,3,4-tetrahydroquinolin-6-yl)isonicotinamide] | 8 to 10 | 0.73 | 99 | high-affinity compounds for the inhibition of ALDH1a3 activity | 2 | does not inhibit | effective at inhibiting Aldh1a3 activity |  |  |  |  |  | 
2 | CCc1ccccc1C(=O)Nc1cc2c(cc1F)NC(=O)CC2 [MBE1.5, 2-ethyl-N-(7-fluoro-2-oxo-1,2,3,4-tetrahydroquinolin-6-yl)benzamide] |  | 0.03 | 100 | high-affinity compounds for the inhibition of ALDH1a3 activity | 2 |  |  | 8 to 10 | more adept at inhibiting highly ALDH1a3-active cells than MBE1 | specifically inhibits ALDH1a3 at concentrations below 10 μM | not affected | not affected | not affected

Reference: patent US12162855B2, “Tetrahydroquinolino derivatives for the treatment of metastatic and chemoresistant cancers” (THE TRUSTEES OF PRINCETON UNIVERSITY, priority 2018, dated 2024)
